Source: PubChem BioAssay (NCI)
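Results reflect a 48-hour exposure of cells in 96-well plates to compound at five concentrations. At the GI50, growth is halved. TGI: total growth inhibition.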

Columns and labels:
Assay in all cases: NCI anticancer screen, dose series, 48 h
BT-549 breast = test system: BT-549 breast
SK-MEL-5 melanoma = test system: SK-MEL-5 melanoma
SF-539 CNS = test system: SF-539 CNS
SK-MEL-2 melanoma = test system: SK-MEL-2 melanoma
SNB-19 CNS = test system: SNB-19 CNS
SR leukemia = test system: SR leukemia
UO-31 renal = test system: UO-31 renal
SK-MEL-28 melanoma = test system: SK-MEL-28 melanoma

N#CC1=C(/N=C/c2ccccc2)Oc2c(ccc3ccccc23)C1c1ccccc1 (centres undefined)
GI50 (BT-549 breast): 0.951 µM
TGI (BT-549 breast): > 24.5 µM
GI50 (SK-MEL-5 melanoma): 0.378 µM
TGI (SK-MEL-5 melanoma): 2.5 µM
GI50 (SF-539 CNS): 0.335 µM
TGI (SF-539 CNS): 2.06 µM
GI50 (SK-MEL-2 melanoma): 1.41 µM
TGI (SK-MEL-2 melanoma): > 100 µM
GI50 (SNB-19 CNS): 0.702 µM
TGI (SNB-19 CNS): > 100 µM
GI50 (SR leukemia): 0.409 µM
TGI (SR leukemia): > 100 µM
GI50 (UO-31 renal): 0.452 µM
TGI (UO-31 renal): > 100 µM
TGI (SK-MEL-28 melanoma): > 100 µM

CC(=O)NCc1cccc(C#Cc2cncnc2Nc2ccc(OCc3cccc(F)c3)c(Cl)c2)c1
GI50 (BT-549 breast): 13.5 µM
TGI (BT-549 breast): > 25 µM
GI50 (SK-MEL-5 melanoma): 9.44 µM
TGI (SK-MEL-5 melanoma): > 25 µM
GI50 (SF-539 CNS): > 21.1 µM
TGI (SF-539 CNS): > 25 µM
GI50 (SK-MEL-2 melanoma): 11.8 µM
TGI (SK-MEL-2 melanoma): > 25 µM
GI50 (SNB-19 CNS): > 21.8 µM
TGI (SNB-19 CNS): > 25 µM
GI50 (SR leukemia): > 25 µM
TGI (SR leukemia): > 25 µM
GI50 (UO-31 renal): 3.25 µM
TGI (UO-31 renal): > 21.1 µM
GI50 (SK-MEL-28 melanoma): 19.8 µM
TGI (SK-MEL-28 melanoma): > 25 µM

COc1ccc(-c2nc(/C=C3\SC(=NCc4ccccc4)NC3=O)c3ccccn23)cc1
GI50 (BT-549 breast): 1.38 µM
TGI (BT-549 breast): 3.1 µM
GI50 (SK-MEL-5 melanoma): 1.51 µM
TGI (SK-MEL-5 melanoma): 3.19 µM
GI50 (SF-539 CNS): 1.41 µM
TGI (SF-539 CNS): 1.99 µM
GI50 (SK-MEL-2 melanoma): 2.19 µM
TGI (SK-MEL-2 melanoma): 7.25 µM
GI50 (SNB-19 CNS): 2.71 µM
TGI (SNB-19 CNS): 9.68 µM
GI50 (SR leukemia): 2.5 µM
TGI (SR leukemia): > 100 µM
GI50 (UO-31 renal): 1.49 µM
TGI (UO-31 renal): 3 µM
GI50 (SK-MEL-28 melanoma): 2 µM
TGI (SK-MEL-28 melanoma): 4.4 µM

NS(=O)(=O)c1ccc(-c2cc3ccncc3cc2OCc2ccccc2)cc1
GI50 (BT-549 breast): 6.01 µM
TGI (BT-549 breast): > 25 µM
GI50 (SK-MEL-5 melanoma): > 25 µM
TGI (SK-MEL-5 melanoma): > 25 µM
GI50 (SF-539 CNS): 7.17 µM
TGI (SF-539 CNS): > 25 µM
GI50 (SK-MEL-2 melanoma): 14.6 µM
TGI (SK-MEL-2 melanoma): > 25 µM
GI50 (SNB-19 CNS): > 25 µM
TGI (SNB-19 CNS): > 25 µM
GI50 (SR leukemia): 6.58 µM
TGI (SR leukemia): > 23.4 µM
GI50 (UO-31 renal): 14.5 µM
TGI (UO-31 renal): > 25 µM
GI50 (SK-MEL-28 melanoma): 20.6 µM
TGI (SK-MEL-28 melanoma): > 25 µM

COC1=C(OC)C(=O)C(SC/C=C(\C)CCCC(C)CCCC(C)CCCC(C)C)=CC1=O (centres undefined)
GI50 (BT-549 breast): 0.993 µM
TGI (BT-549 breast): 10.2 µM
GI50 (SK-MEL-5 melanoma): 0.341 µM
TGI (SK-MEL-5 melanoma): 1.73 µM
GI50 (SF-539 CNS): 1.41 µM
TGI (SF-539 CNS): > 92.2 µM
GI50 (SK-MEL-2 melanoma): 0.802 µM
TGI (SK-MEL-2 melanoma): 4.24 µM
GI50 (SNB-19 CNS): 1.5 µM
TGI (SNB-19 CNS): > 100 µM
GI50 (SR leukemia): 1.09 µM
TGI (SR leukemia): > 100 µM
GI50 (UO-31 renal): 1.24 µM
TGI (UO-31 renal): > 27.2 µM
GI50 (SK-MEL-28 melanoma): 1.04 µM
TGI (SK-MEL-28 melanoma): > 100 µM

CCc1cccc(C)c1NC(=O)c1sc2nc3c(cc2c1N)C(=O)CCC3
GI50 (BT-549 breast): 8.58 µM
TGI (BT-549 breast): > 100 µM
GI50 (SK-MEL-5 melanoma): 0.353 µM
TGI (SK-MEL-5 melanoma): 5.89 µM
GI50 (SK-MEL-2 melanoma): 0.365 µM
TGI (SK-MEL-2 melanoma): 27.3 µM
GI50 (SNB-19 CNS): 0.918 µM
TGI (SNB-19 CNS): > 100 µM
GI50 (SR leukemia): 0.501 µM
TGI (SR leukemia): > 41.1 µM
GI50 (UO-31 renal): 2.25 µM
TGI (UO-31 renal): 99.8 µM
GI50 (SK-MEL-28 melanoma): 1.09 µM
TGI (SK-MEL-28 melanoma): > 100 µM

CSc1nc2sc3c(c2c(=O)n1-c1ccc(C(C)C)cc1)CCC(=O)C3
GI50 (BT-549 breast): 2.94 µM
TGI (BT-549 breast): 8.36 µM
GI50 (SK-MEL-5 melanoma): 1.71 µM
TGI (SK-MEL-5 melanoma): 3.36 µM
GI50 (SF-539 CNS): 2.05 µM
TGI (SF-539 CNS): 4.1 µM
GI50 (SK-MEL-2 melanoma): 2.5 µM
TGI (SK-MEL-2 melanoma): 5.77 µM
GI50 (SNB-19 CNS): 2.15 µM
TGI (SNB-19 CNS): 4.56 µM
GI50 (SR leukemia): 2.14 µM
TGI (SR leukemia): 6.02 µM
GI50 (UO-31 renal): 1.57 µM
TGI (UO-31 renal): 3.26 µM
GI50 (SK-MEL-28 melanoma): 2.45 µM
TGI (SK-MEL-28 melanoma): 4.62 µM
